Legend:
Glutamate NMDA receptor = assay: Displacement of [3H]CGP-39653 from NMDA receptor in rat brain cortical membranes; type: cell membranes
[1] = biological target: T1, Metabotropic glutamate receptor 3 (Homo sapiens, UniProt Q14832); assay: Agonist activity at human mGluR3 receptor expressed in HEK cells; type: cell-based, HEK293
[2] = biological target: T1, Metabotropic glutamate receptor 3; assay: Binding affinity to human mGluR3 receptor expressed in HEK cells; type: cell-based, HEK293
[3] = biological target: T2, G-protein coupled receptor family C group 6 member A (Mus musculus, UniProt Q8K4Z6); assay: Agonist activity at mouse GPRC6A expressed in human tsA201 cells coexpressing GalphaqG66D after 30 mins by inositol phosphate turnover assay; type: functional, cell-based
T2 sequence (Q8K4Z6 whole entry): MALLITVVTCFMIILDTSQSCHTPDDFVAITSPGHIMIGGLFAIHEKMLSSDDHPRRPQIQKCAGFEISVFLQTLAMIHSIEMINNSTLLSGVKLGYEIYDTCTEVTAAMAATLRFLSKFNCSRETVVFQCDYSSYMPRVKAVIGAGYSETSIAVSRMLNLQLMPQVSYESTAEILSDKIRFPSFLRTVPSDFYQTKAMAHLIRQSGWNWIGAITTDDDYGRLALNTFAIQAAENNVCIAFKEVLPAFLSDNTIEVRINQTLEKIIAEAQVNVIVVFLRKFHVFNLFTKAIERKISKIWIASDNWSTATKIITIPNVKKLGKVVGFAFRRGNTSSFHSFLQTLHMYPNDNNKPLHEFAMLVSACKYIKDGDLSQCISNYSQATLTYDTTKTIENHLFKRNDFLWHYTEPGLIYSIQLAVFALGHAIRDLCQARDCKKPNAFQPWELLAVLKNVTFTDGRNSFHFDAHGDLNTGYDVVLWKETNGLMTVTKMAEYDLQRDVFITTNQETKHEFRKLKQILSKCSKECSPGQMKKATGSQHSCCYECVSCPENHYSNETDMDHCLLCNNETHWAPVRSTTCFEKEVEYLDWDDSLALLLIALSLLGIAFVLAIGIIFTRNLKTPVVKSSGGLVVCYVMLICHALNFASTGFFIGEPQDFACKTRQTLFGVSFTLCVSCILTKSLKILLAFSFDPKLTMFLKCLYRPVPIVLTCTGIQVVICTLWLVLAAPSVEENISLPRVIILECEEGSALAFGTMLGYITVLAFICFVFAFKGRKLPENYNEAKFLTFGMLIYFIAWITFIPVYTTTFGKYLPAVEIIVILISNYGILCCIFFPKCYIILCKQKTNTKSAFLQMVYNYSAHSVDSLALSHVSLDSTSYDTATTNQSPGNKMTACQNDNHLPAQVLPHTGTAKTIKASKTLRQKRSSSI

[4] = biological target: T3, Metabotropic glutamate receptor 7 (Homo sapiens, UniProt Q14831); assay: Agonist activity at human mGluR7 receptor expressed in HEK cells; type: cell-based, HEK293
T3 sequence (Q14831 whole entry): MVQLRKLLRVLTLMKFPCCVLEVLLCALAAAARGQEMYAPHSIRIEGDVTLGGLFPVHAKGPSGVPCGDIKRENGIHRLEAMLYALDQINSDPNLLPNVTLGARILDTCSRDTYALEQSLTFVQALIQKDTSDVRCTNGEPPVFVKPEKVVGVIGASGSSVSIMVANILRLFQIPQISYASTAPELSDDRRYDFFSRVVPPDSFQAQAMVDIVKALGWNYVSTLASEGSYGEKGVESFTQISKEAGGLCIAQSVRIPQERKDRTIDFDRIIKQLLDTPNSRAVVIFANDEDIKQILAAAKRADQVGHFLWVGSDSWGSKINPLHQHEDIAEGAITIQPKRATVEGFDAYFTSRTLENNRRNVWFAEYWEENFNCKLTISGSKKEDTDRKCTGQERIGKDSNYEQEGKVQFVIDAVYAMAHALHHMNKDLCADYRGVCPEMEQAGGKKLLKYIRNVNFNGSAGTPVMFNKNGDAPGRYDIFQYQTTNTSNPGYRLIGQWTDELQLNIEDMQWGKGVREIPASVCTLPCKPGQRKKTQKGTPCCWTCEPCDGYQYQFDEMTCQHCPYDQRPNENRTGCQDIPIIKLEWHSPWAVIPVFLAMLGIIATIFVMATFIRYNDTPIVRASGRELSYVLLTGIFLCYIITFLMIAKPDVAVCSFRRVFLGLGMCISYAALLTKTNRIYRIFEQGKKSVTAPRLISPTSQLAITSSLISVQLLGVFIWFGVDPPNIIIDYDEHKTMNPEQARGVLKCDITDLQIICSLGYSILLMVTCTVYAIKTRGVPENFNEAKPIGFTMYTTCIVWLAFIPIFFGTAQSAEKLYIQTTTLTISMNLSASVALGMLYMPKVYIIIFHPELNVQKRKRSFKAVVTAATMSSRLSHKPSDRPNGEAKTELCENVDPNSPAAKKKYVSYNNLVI

[5] = biological target: T3, Metabotropic glutamate receptor 7; assay: Binding affinity to human mGluR7 receptor expressed in HEK cells; type: cell-based, HEK293

T1 sequence (Q14832 whole entry): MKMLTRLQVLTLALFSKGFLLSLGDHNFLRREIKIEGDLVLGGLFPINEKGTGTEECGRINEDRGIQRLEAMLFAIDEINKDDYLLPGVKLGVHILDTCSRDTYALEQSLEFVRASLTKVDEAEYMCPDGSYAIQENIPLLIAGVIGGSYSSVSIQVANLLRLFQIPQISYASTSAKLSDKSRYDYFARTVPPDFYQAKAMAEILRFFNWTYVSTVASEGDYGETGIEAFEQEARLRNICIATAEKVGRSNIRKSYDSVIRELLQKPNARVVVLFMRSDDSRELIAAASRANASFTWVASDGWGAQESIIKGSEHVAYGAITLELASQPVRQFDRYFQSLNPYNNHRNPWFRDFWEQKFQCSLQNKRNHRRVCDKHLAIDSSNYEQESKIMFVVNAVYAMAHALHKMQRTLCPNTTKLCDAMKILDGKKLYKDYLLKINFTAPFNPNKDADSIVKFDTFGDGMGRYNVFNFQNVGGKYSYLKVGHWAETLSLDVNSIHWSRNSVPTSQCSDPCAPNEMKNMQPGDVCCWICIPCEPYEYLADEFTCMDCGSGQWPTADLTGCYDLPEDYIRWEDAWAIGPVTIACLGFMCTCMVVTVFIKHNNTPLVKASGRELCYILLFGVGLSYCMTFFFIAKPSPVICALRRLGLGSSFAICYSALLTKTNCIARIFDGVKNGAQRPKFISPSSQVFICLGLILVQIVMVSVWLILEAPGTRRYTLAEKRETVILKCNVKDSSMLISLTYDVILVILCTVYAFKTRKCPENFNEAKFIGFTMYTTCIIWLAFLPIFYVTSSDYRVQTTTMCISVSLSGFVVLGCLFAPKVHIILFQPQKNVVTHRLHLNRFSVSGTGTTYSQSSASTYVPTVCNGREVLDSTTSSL

SMILES	Ki (Glutamate NMDA receptor) [µM]	EC50 [1] [µM]	other results
N[C@@]1(C(=O)O)C[C@@H]1CC(=O)O (relative stereo)	77	200	Ki [2]: 200 µM
N[C@@]1(C(=O)O)C[C@H]1CC(=O)O (relative stereo)	72	> 1000	–
N=C(N)NCCC[C@H](N)C(=O)O [ARGININE]	–	–	EC50 [3]: 284 µM

Second part, led by results:

Ki (Glutamate NMDA receptor) [µM]	EC50 [1] [µM]	SMILES	other results
> 100	–	N[C@@H](CCc1nsnc1O)C(=O)O	–
> 100	–	N[C@H](CCc1nsnc1O)C(=O)O	–
19	–	N[C@]1(C(=O)O)C[C@H]1Cc1nsnc1O (relative stereo)	–
–	0.06	N[C@@H](CCC(=O)O)C(=O)O [GLUTAMIC ACID]	EC50 [4]: 1180 µM; Ki [2]: 0.0575 µM; Ki [5]: 1170 µM

Reference: ChEMBL document CHEMBL3390832 (Medchemcomm, 2011)
